The values below come from patent US20220185811A1, “FGFR4 KINASE INHIBITOR AND PREPARATION METHOD THEREFOR AND USE THEREOF” (SHOUYAO HOLDINGS (BEIJING) CO., LTD., priority 2019, published 2022).

Where two headings read alike, the source gives them in different places.

One data set deals with FGFR-4 kinase (Homo sapiens, UniProt P22455). In words: FGFR-4 kinase activity, homogeneous time-resolved fluorescence (HTRF) method. The data set is classed as biochemical. Particulars: ATP 25 μM, FGFR-4 kinase 1 nM, read-out: FGFR4 IC50. As for the experimental part:
1. In vitro determination of the protein activity of compounds: The FGFR-4 kinase activity detection platform was established by the homogeneous time-resolved fluorescence (HTRF) method, and the activity of the compound was determined. 1000 μM compounds were subjected to 3-fold gradient dilution in 100% DMSO 11 times (12 concentrations in total), 4 μL diluent from each concentration was added to 96 μL of reaction buffer (50 mM HEPES, pH 7.4, 5 mM MnCl2, 0.1 mM NaVO3, 0.001% Tween-20, 0.01% BAS, 1 mM DTT) and mixed well, as a 4* compound (final concentration of 0.017 nM-1000 nM) for later use. 2 * FGFR-4 kinase (final concentration of 1 nM) was formulated using reaction buffer and 4*substrate (ATP+TK peptide) (TK peptide, HTRF® KinEASETM-TK, purchased from Cisbio, TK peptide, final concentration of 1 μM, ATP final concentration of 25 μ M) was formulated using reaction buffer. 2.5 μL of 4*compound and then 5 μL of 2 * FGFR-4 kinase were added to a 384-well plate (OptiPlate-384, purchased from PerkinElmer), the mixture was mixed by centrifugation, and 2.5 μL of 4 * substrate mixture was added to start the reaction (total reaction volume of 10 µL). The 384-well plate was placed in an incubator 23° C. and stirred for 60 min before the reaction was stopped by the addition of 5 μL of Eu^3+cryptate-labeled anti-phosphotyrosine antibody (TRF® KinEASE™-TK, purchased from Cisbio) and 5 μL of Streptavidin-XL-665 (HTRF® KinEASE™-TK, purchased from Cisbio). After incubation in the incubator for 1 h, fluorescence values (excitation at 320 nm, detecting emitted light at 665 nm and 620 nm, and a ratio of the two as enzyme activity) were read on Envision (purchased from PerkinElmer). The enzyme activity of each compound was measured at 12 concentrations, and the ICso value of the compound was calculated using GraphPad Prism 5.0 software.
The FGFR-4 kinase activity detection platform was established by homogeneous time-resolved fluorescence (HTRF) method, and the activity of compound was determined. 1000 μM compounds were subjected to 3-fold gradient dilution in 100% DMSO 11 times (12 concentrations in total), 4 μL of diluent from each concentration was added to 96 μL of reaction buffer (50 mM HEPES, pH 7.4, 5 mM MnCl2, 0.1 mM NaVO3, 0.001% Tween-20, 0.01% BAS, 1 mM DTT) and mixed well, as a 4* compound (final concentration of 0.017 nM-1000 nM) for later use. 2 * FGFR-4 kinase (final concentration of 1 nM) was formulated using reaction buffer and 4*substrate (ATP+TK peptide)(TK peptide, HTRF® KinEASE™-TK, purchased from Cisbio, TK peptide, final concentration of 1 μM, ATP final concentration of 25 μM) was formulated using reaction buffer. 2.5 μL of 4 * compound and then 5 μL of 2 * FGFR-4 kinase were added to a 384-well plate (OptiPlate-384, purchased from PerkinElmer), the mixture was mixed by centrifugation, and 2.5 μL of 4 * substrate mixture was added to start the reaction (total reaction volume of 10 μL). The 384-well plate was placed in an incubator 23° C. and stirred for 60 min before the reaction was stopped by the addition of 5 μL of Eu^3+cryptate-labled anti-phosphotyrosine antibody (TRF® KinEASE™-TK, purchased from Cisbio) and 5 μL of Streptavidin-XL-665 (HTRF® KinEASE™-TK, purchased from Cisbio). After incubation in the incubator for 1 h, fluorescence values (excitation at 320 nm, detecting emitted light at 665 nm and 620 nm, and a ratio of the two as enzyme activity) were read on Envision (purchased from PerkinElmer). The enzyme activity of each compopund was measured at 12 concentrations, and the ICso value of the compound was calculated using GraphPad prism 5.0 software.
On the technique in general: Time-resolved FRET reads energy transfer from a long-lived donor to a nearby acceptor.

Data set [1] relates to Human hepatoma cells Hep3b. In words: Cell proliferation inhibition, Cell Titer-Glo. Format: cell-based. Particulars: Hep3B, 72 h. As for the experimental part:
2. Determination of cell proliferation activity of compounds:
Cell Titer-Glo ® detection reagent from Promega was used to establish the suspension cell proliferation inhibition screening method. Human hepatoma cells Hep3b (Xiehe Cell Research Center) were cultured in 25 cm^2 or 75 cm^2 plastic tissue culture flasks (Corning®) filled with MEM (Gibco®) medium supplemented with 10% fetal bovine serum (Hyclone®) under 37° C., 95% air and 5% CO2, and subcultured 2-3 times a week.
(§1) Hep3b cells were seeded in a 96-well cell culture plate (Corning®) at a density of 3×10^3 cells/well, […], and cultured under 37° C., 95% air, and 5% CO2. After 24 h the test compound was added: 10 mM compounds (dissolved in DMSO) were subjected to 3-fold gradient dilution in DMSO , […] of diluent from each concentration was added to […] of serum-free medium, and finally […] of compound diluted in the medium was added to the plate seeded with cells. The final concentration of DMSO in the cell culture medium was 0.1% and the final concentration of the test compound was 0.3 nM-[…]. The above cells were incubated for 3 days under 37° C.
After 3 days, the cell viability assay was performed by the Cell Titer-Glo (Promega) kit, and finally, the inhibitory concentration 50% of the compound on cell proliferation, i.e. the IC 50 value, was calculated by the GraphPad Prism 5.0 program.
as §1, with “DMSO,” for “DMSO ,”, “finally,” for “finally”, “of” for “of the”
After 3 days, the cell viability assay was performed by the Cell Titer-Glo (Promega) kit, and finally the inhibitory concentration 50% of the compound on cell proliferation, i.e. the IC 50 value, was calculated by the GraphPad Prism 5.0 program.
(In general: ATP-based viability assays read luminescence as a measure of living cells.)

A short description of data set [2]: Pharmacokinetics in male SD rats, single intragastric administration. Format: in vivo. Particulars: rat, po, 5 mg/kg suspension, plasma, first PK table. The procedure: (§2) Male SD rats (Beijing Vital River Laboratory Animal Technology Co., Ltd.) were divided into groups of 3 rats each. The rats were subjected to 5 mg/kg suspension of the test sample by single intragastric administration, respectively. Animals were fasted overnight prior to the experiment from 10 h before dosing to 4 h after dosing. Blood was collected 0.25, 0.5, 1, 2, 4, 6, 8, and 24 h after administration. After isoflurane anesthesia using a small animal anesthesia machine, 0.3 mL of whole blood samples was collected from the fundus venous plexus, placed in a heparin anticoagulant tube, and were centrifuged at 4° C., 4000 rpm for 5 min, plasma was transferred to the centrifuge tube, and stored at −80° C. until analysis. Samples in the plasma were extracted using protein precipitation and the extracts were analyzed by LC/MS/MS.
as §2, with “taken through” for “collected from”, “-80°” for “−80°”

FGFR-4 kinase, sequence (P22455 22-802): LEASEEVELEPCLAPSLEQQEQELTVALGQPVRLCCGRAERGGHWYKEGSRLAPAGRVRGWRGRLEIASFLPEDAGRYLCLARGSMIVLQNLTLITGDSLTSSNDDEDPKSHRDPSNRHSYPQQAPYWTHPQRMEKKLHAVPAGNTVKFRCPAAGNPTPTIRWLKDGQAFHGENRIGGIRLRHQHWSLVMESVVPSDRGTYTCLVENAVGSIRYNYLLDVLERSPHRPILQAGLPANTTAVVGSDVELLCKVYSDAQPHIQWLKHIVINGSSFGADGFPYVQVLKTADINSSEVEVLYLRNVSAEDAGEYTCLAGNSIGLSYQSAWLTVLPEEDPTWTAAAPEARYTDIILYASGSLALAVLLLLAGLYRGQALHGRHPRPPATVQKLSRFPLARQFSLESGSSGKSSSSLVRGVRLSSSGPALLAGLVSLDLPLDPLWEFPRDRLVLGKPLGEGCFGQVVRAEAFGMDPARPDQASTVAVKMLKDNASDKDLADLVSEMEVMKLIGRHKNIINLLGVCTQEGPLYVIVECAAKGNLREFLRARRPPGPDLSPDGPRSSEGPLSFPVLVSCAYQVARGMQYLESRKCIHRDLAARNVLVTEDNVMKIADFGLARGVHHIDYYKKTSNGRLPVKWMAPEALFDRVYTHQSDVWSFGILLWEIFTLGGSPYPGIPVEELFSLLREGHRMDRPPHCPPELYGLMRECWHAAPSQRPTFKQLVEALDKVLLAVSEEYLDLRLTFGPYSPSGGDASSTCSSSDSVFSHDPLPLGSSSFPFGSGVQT

By IC50 is commonly meant the point on the concentration scale where inhibition reaches its midpoint. As for `C=CC(=O)Nc1cc(-c2cc3c(cn2)cc(-c2c(Cl)c(OC)cc(OC)c2Cl)c2nccn23)c(OC)cc1N1CCN(C2COC2)CC1` [Example 65, N-(5-(4-(2,6-dichloro-3,5-dimethoxyphenyl)imidazo[1,2-a][1,6]naphthyridin-8-yl)-4-methoxy-2-(4-(oxetan-3-yl)piperazin-1-yl)phenyl)acrylamide], the IC50 at FGFR-4 kinase (Table 2) was 0.9 nM; in data set [1] (Table 2, 3 days incubation), 22.3 nM.

In the case of `C=CC(=O)Nc1cc(-c2cc3c(cn2)cc(-c2c(Cl)c(OC)cc(OC)c2Cl)c2nccn23)c(OC)cc1N1CCN(C(C)=O)C2(CC2)C1` [Example 11, N-(2-(4-acetyl-4,7-diazaspiro[2.5]octan-7-yl)-5-(4-(2,6-dichloro-3,5-dimethoxyphenyl)imidazo[1,2-a][1,6]naphthyridin-8-yl)-4-methoxyphenyl)acrylamide], the IC50 was determined as 3.82 nM at FGFR-4 kinase (Table 1) and 68.3 nM in data set [1] (Table 1, 3 days incubation).

Take `C=CC(=O)Nc1cc(-c2cc3c(cn2)cc(-c2c(Cl)c(OC)cc(OC)c2Cl)c2nccn23)c(OC)cc1N1CCC(N(C)C)CC1` [Example 67]: the IC50 on FGFR-4 kinase (Table 2) came to 0.4 nM; in data set [1] (Table 2, 3 days incubation), 81.3 nM.

For the compound `CC#CC(=O)Nc1cc(-c2cc3c(cn2)cc(-c2c(Cl)c(OC)cc(OC)c2Cl)c2nccn23)c(OC)cc1N1CCC(N2CCOCC2)CC1` [Example 31, N-(5-(4-(2,6-dichloro-3,5-dimethoxyphenyl)imidazo[1,2-a][1,6]naphthyridin-8-yl)-4-methoxy-2-(4-morpholinopiperidin-1-yl)phenyl)but-2-ynamide], the IC50 turned out to be 3.63 nM at FGFR-4 kinase (Table 1) and 81.3 nM in data set [1] (Table 1, 3 days incubation).

Regarding `C=CC(=O)Nc1cc(-c2cc3c(cn2)cc(-c2c(Cl)c(OC)cc(OC)c2Cl)c2nccn23)c(OC)cc1N1CCC2(COC2)C1` [Example 20, N-(5-(4-(2,6-dichloro-3,5-dimethoxyphenyl)imidazo[1,2-a][1,6]naphthyridin-8-yl)-4-methoxy-2-(2-oxa-6-azaspiro[3.4]octan-6-yl)phenyl)acrylamide], the IC50 on FGFR-4 kinase (Table 1) came out at 2.54 nM.

In data set [1] (Table 1, 3 days incubation), `C=CC(=O)Nc1cc(-c2cc3c(cn2)cc(-c2c(Cl)c(OC)cc(OC)c2Cl)c2nccn23)c(OC)cc1N1CCOC2(CC2)C1` [Example 5, N-(5-(4-(2,6-dichloro-3,5-dimethoxyphenyl)imidazo[1,2-a][1,6]naphthyridin-8-yl)-4-methoxy-2-(4-oxa-7-azaspiro[2.5]octan-7-yl)phenyl)acrylamide] registered an IC50 of 20.3 nM.

A word on the AUC(0-inf): it is total exposure, with the tail of the curve extrapolated. High values mean more exposure, low ones less exposure. A word on the Cmax: it is the peak of the concentration-time curve. Usually Tmax stands for the time from dosing to the highest level. Regarding `CC#CC(=O)Nc1cc(-c2cc3c(cn2)cc(-c2c(Cl)c(OC)cc(OC)c2Cl)c2nccn23)c(OC)cc1N1C[C@@H]2C[C@H]1CO2` [Example 27, N-(2-((1S,4S)-2-oxa-5-azabicyclo[2.2.1]heptan-5-yl)-5-(4-(2,6-dichloro-3,5-dimethoxyphenyl)imidazo[1,2-a][1,6]naphthyridin-8-yl)-4-methoxyphenyl)but-2-ynamide], in data set [2], the total exposure AUC(0-inf) is 1860 ng·h/mL, the peak level (Cmax) was 452 ng/mL and the Tmax turned out to be 3.33 h. Further, the half-life in data set [2] (read-out: T1/2 (converted)) was 2.73 h.

For `C=CC(=O)Nc1cc(-c2cc3c(cn2)cc(-c2c(Cl)c(OC)cc(OC)c2Cl)c2nccn23)c(OC)cc1N1CCC2(CCN(C)C2)C1` (centres unmarked) [Example 22], the IC50 at FGFR-4 kinase (Table 1) was determined as 5.61 nM.

With `C=CC(=O)Nc1cc(-c2cc3c(cn2)cc(-c2c(Cl)c(OC)cc(OC)c2Cl)c2nccn23)c(OC)cc1N1CCO[C@@H](C)C1` [Example 38, (S)-N-(5-(4-(2,6-dichloro-3,5-dimethoxyphenyl)imidazo[1,2-a][1,6]naphthyridin-8-yl)-4-methoxy-2-(2-methylmorpholino)phenyl)acrylamide], the IC50 on FGFR-4 kinase (Table 1) was determined as 5.07 nM.

For `C=CC(=O)Nc1cc(-c2cc3c(cn2)cc(-c2c(Cl)c(OC)cc(OC)c2Cl)c2nccn23)c(OC)cc1N1CC2COCC2C1` (centres unmarked) [Example 4, N-(5-(4-(2,6-dichloro-3,5-dimethoxyphenyl)imidazo[1,2-a][1,6]naphthyridin-8-yl)-4-methoxy-2-(tetrahydro-1H-furo[3,4-c]pyrrol-5(3H)-yl)phenyl)acrylamide], at FGFR-4 kinase (Table 1), the IC50 stood at 2.25 nM.
